Laboratory results published in ChEMBL document CHEMBL1201862, “PubChem BioAssay data set” (2004).
Activity calls are given as the source filed them.

What was measured:
[1] = ARNT/TACC3 interaction disruptors, potency, confirmation, biochemical, AlphaScreen, cherry-picked samples (AID 651703); format: functional, Homo sapiens;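 note: His-tagged ARNT PAS-B domain paired with GST-TACC3 E629A dimer coactivator fragment; potency of inhibitors that break up the complex and lower AlphaScreen signal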
[2] = inhibitors of firefly luciferase expression or activity, dose response, H4 neuroglioma cells, luminescence (AID 1990); format: functional, cell-based
[3] = Luminescence Cell-Based Dose Response HTS to Identify Inhibitors of 5'UTR Stem-Loop Driven Prion Protein mRNA Translation in H4 Neuroglioblastoma Cells. [Related pubchem assays: 1827 (Project Summary), 1813 (Primary HTS)]; format: functional
[4] = inhibitors of SNCA 5'UTR-driven reporter translation, confirmation, H4 neuroglioma cells, luminescence (AID 1988); format: functional, cell-based
cells = format: functional, cell-based
[5] = biological target: T1, Nuclear receptor subfamily 0 group B member 1 (Homo sapiens, UniProt P51843); format: functional, cell-based;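 note: HEK293T cells transfected with SF-1 and DAX-1 plus StAR promoter luciferase reporter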
T1 sequence (P51843 whole entry): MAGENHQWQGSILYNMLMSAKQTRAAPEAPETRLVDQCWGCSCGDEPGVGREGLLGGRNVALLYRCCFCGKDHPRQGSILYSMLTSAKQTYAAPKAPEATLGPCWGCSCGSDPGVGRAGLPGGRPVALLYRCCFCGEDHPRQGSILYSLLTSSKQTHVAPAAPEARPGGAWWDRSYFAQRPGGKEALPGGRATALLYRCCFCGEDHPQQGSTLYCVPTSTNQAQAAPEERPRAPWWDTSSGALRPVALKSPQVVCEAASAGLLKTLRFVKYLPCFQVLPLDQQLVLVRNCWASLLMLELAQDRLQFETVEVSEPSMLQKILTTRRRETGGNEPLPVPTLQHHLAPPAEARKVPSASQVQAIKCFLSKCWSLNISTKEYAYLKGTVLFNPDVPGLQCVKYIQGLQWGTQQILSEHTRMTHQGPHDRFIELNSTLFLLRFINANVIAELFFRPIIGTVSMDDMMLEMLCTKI

HEK293 = experiment: inhibitors of LMP1-driven NF-kB reporter, dose response, cell-based, HEK293, luciferase, cherry-pick (AID 588343); format: functional; settings: Homo sapiens
Interleukin-8 [6] = biological target: T2, Interleukin-8 (Homo sapiens, UniProt P10145); experiment: Dose Response confirmation of uHTS small molecule hits for cystic fibrosis induced NFkb Inhibitors in a TNFa-induced IL8 counterscreen.; format: functional; settings: read-out: IC50_Mean
T2 sequence (P10145 whole entry): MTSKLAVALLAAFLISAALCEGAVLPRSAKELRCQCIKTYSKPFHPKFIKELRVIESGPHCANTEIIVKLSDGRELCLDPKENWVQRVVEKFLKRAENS

Interleukin-8 [7] = biological target: T2, Interleukin-8; experiment: Dose Response confirmation of uHTS small molecule hits for cystic fibrosis induced NFkb Inhibitors in a PAF-induced IL8 counterscreen.; format: functional; settings: read-out: IC50_Mean
[8] = biological target: T3, Methionyl-tRNA synthetase, putative (Trypanosoma brucei brucei, UniProt Q38C91); format: functional, Trypanosoma brucei brucei strain 927/4 GUTat10.1
T3 sequence (Q38C91 whole entry): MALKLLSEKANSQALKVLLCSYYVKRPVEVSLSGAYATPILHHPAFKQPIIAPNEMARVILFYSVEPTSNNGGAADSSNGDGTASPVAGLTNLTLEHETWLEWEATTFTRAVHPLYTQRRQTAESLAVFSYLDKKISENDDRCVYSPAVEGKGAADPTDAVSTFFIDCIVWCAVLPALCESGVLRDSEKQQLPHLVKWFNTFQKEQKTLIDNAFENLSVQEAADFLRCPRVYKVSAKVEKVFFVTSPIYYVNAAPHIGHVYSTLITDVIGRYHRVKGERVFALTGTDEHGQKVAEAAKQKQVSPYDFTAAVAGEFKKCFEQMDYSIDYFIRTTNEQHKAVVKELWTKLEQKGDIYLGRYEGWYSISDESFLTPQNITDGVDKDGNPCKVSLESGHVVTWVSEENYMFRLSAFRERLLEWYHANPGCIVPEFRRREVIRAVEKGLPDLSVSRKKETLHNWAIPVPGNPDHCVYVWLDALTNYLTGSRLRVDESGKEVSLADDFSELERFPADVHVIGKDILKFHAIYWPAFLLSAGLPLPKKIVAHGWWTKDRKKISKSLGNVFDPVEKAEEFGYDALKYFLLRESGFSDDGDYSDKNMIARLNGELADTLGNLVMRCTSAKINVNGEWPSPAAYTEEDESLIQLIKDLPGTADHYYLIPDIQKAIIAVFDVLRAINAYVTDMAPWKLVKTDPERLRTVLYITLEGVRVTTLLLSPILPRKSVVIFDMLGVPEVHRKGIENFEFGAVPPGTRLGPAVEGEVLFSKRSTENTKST

[9] = Counterscreen for inhibitors of Trypanosoma brucei methionyl tRNA synthetase (MetRS): Luminescence-based cell-based high throughput dose response assay to identify compounds that are cytotoxic to Jurkat human T lymphocyte cells.; format: functional
[10] = biological target: T3, Methionyl-tRNA synthetase, putative; format: functional, Trypanosoma brucei brucei strain 927/4 GUTat10.1; remark: listed apart in the source
[11] = biological target: SWI/SNF-related matrix-associated actin-dependent regulator of chromatin subfamily A member 2 (Homo sapiens, UniProt P51531); experiment: Luminescence-based cell-based high throughput dose response assay to identify activators of the function of SWI/SNF related, matrix associated, actin dependent regulator of chromatin, subfamily a, member 2 (SMARCA2, BRM).; format: functional
Chain of SWI/SNF-related matrix-associated actin-dependent regulator of chromatin subfamily A member 2 (P51531 whole entry): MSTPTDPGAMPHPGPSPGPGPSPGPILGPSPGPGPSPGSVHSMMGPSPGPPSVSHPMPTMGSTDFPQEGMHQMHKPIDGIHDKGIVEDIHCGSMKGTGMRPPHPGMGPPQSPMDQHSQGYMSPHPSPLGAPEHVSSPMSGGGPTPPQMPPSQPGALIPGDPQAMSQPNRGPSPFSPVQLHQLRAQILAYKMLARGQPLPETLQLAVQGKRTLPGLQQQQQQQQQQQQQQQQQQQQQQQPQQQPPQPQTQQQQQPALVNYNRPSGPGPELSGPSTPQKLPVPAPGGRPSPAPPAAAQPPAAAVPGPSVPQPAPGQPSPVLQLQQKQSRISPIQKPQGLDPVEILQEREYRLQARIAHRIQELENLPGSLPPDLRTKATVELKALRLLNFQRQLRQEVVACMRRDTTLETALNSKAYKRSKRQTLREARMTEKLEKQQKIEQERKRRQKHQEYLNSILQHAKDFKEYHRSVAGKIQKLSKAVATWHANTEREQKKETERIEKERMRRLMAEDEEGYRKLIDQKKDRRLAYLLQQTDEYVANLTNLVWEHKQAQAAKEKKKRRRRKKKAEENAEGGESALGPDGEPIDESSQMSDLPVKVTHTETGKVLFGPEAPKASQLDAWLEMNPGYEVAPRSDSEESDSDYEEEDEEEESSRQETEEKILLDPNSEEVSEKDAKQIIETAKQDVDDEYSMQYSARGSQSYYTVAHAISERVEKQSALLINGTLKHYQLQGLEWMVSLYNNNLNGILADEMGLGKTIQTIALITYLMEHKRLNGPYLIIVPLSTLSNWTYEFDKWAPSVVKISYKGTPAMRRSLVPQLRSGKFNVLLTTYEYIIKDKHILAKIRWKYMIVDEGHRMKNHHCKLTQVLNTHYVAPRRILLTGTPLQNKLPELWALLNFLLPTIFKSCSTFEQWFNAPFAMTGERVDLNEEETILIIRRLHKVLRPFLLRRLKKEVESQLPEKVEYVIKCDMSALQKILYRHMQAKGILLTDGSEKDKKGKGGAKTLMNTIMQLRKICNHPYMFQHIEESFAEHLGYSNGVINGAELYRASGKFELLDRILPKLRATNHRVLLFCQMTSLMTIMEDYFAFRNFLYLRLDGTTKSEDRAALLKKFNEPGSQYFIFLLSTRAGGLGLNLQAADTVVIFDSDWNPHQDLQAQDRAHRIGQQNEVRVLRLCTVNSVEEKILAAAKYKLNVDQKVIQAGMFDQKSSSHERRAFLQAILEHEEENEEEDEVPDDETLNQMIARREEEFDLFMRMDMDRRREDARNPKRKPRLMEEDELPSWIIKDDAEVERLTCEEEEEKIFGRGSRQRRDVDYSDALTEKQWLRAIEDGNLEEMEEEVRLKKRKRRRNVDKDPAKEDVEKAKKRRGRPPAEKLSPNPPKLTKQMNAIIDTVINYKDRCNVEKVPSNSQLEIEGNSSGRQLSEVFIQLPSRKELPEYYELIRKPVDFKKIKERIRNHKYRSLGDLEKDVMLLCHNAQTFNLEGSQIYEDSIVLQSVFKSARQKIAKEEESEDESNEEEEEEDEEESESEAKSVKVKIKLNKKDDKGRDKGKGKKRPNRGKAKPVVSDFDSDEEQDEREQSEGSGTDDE

[12] = Luminescence Cell-Based Dose Response HTS to Identify Activators of Luciferase Translation or Activity in H4 […] Cells. [Related pubchem assays: 1829 (Project Summary), 1814 (Primary HTS)]; format: functional
H4 = experiment: Luminescence Cell-Based Dose Response HTS to Identify Activators of 5'UTR Stem-Loop Driven Prion Protein mRNA Translation in H4 Neuroglioblastoma Cells. [Related pubchem assays: 1829 (Project Summary), 1814 (Primary HTS)]; format: functional; settings: Homo sapiens
[13] = Luminescence Cell-Based Dose Confirmation HTS to Identify Activators of 5'UTR Stem-Loop Driven Alpha-Synuclein mRNA Translation in H4 Neuroglioblastoma Cells. [Related pubchem assays: 1829 (Project Summary), 1814 (Primary HTS)]; format: functional
[14] = Counterscreen for activators of the function of SWI/SNF related, matrix associated, actin dependent regulator of chromatin, subfamily a, member 2 (SMARCA2, BRM): Luminescence-based cell-based high throughput dose response assay to identify non-selective compounds using the VP16 reporter assay.; format: functional
[15] = biological target: T4, Scavenger receptor class B member 1 (Mus musculus, UniProt Q61009); experiment: inhibitors of SR-BI-mediated HDL uptake, dose response, cell-based, ldlA[mSR-BI] CHO, DiI fluorescence, dry powder, set 10 (AID 624029); format: functional
T4 sequence (Q61009 whole entry): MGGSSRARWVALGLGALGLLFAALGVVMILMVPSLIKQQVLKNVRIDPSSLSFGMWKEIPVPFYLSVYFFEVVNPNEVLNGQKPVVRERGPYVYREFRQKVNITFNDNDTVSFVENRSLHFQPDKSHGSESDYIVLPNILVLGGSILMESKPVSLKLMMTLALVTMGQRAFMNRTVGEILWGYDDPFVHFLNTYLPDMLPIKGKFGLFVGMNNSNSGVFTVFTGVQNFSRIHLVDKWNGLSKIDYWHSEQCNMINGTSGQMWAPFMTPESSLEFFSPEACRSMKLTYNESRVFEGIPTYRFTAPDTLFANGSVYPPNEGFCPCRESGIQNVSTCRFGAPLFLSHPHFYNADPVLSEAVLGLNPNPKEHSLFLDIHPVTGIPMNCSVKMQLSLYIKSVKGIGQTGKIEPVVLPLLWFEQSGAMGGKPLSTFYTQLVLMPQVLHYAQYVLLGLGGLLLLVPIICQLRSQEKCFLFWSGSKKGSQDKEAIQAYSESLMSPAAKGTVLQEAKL

[16] = biological target: T4, Scavenger receptor class B member 1; experiment: inhibitors of SR-BI dependent HDL uptake, dose response, ldlA[mSR-BI] CHO cells, fluorescence plate reader, dry powder, set 9 (AID 623880); format: functional, cell-based

For O=C(NCCCn1ccnc1)C(=O)NCC1OCCCN1S(=O)(=O)c1ccccc1 (centres undefined), the AC50 [1] was 80 µM (active), the EC50 [2] was > 120 µM (not active) and the EC50 [3] was 17.5 µM (active). The EC50 [4] was > 120 µM (not active).
For Clc1ccc(-c2nc3ccc(Br)cn3c2Cc2ccsc2)cc1, the IC50 (cells) was > 67.5 µM (inactive) and the IC50 [5] was > 67.5 µM (inactive).
For N#CC(C#N)c1ccnc2ccccc12, the AC50 (HEK293) was 11.5 µM (active), the IC50 (Interleukin-8 [6]) was 40.4 µM (inactive) and the IC50 (Interleukin-8 [7]) was > 79 µM (inactive).
For CCC[C@H]1CN(Cc2cccnc2)C(=O)[C@@H]1CC(=O)Nc1ccc(Br)cc1, the IC50 [8] was 3.49 µM (active), the IC50 [9] was 83.3 µM (inactive) and the IC50 [10] was 8.41 µM (active).
With O=C(CNS(=O)(=O)c1ccccc1)OCC(=O)c1ccc(OC(=O)c2ccccc2)cc1 the EC50 [11] was > 91.2 µM (inactive), the EC50 [12] was 11.7 µM (active) and the EC50 (H4) was > 120 µM (not active). The EC50 [13] was > 120 µM (not active) and the EC50 [14] was > 91.2 µM (inactive).
In the case of C[C@H](C(=O)NC1CCCC1)N(C(=O)Cn1nnc(-c2ccc3c(c2)OCO3)n1)C1CCCCC1, the AC50 [15] is reported as 0.0121 µM (active) and the AC50 [16] is reported as 0.015 µM (active).
